# Measured values taken from patent US20240067657A1, “AMIDO-SUBSTITUTED PYRIDYL COMPOUNDS AND METHODS OF USE THEREOF FOR THE TREATMENT OF HERPESVIRUSES” (Merck Sharp & Dohme LLC, priority 2020, published 2024).
# pEC50, pIC50: −log10 of the molar value. Read-outs that look alike come from different tables or passages of the source.
# Assays:
# [1] = biological target: T1, Human cytomegalovirus DNA polymerase (Human cytomegalovirus, UniProt P08546); test: HCMV polymerase assay (AlphaLISA, IC50); format: biochemical; conditions: polymerase assay of Example 190
# T1 construct: made in house; host or cells: SF21 insect cells (baculovirus vector)
# T1 sequence (P08546 whole entry): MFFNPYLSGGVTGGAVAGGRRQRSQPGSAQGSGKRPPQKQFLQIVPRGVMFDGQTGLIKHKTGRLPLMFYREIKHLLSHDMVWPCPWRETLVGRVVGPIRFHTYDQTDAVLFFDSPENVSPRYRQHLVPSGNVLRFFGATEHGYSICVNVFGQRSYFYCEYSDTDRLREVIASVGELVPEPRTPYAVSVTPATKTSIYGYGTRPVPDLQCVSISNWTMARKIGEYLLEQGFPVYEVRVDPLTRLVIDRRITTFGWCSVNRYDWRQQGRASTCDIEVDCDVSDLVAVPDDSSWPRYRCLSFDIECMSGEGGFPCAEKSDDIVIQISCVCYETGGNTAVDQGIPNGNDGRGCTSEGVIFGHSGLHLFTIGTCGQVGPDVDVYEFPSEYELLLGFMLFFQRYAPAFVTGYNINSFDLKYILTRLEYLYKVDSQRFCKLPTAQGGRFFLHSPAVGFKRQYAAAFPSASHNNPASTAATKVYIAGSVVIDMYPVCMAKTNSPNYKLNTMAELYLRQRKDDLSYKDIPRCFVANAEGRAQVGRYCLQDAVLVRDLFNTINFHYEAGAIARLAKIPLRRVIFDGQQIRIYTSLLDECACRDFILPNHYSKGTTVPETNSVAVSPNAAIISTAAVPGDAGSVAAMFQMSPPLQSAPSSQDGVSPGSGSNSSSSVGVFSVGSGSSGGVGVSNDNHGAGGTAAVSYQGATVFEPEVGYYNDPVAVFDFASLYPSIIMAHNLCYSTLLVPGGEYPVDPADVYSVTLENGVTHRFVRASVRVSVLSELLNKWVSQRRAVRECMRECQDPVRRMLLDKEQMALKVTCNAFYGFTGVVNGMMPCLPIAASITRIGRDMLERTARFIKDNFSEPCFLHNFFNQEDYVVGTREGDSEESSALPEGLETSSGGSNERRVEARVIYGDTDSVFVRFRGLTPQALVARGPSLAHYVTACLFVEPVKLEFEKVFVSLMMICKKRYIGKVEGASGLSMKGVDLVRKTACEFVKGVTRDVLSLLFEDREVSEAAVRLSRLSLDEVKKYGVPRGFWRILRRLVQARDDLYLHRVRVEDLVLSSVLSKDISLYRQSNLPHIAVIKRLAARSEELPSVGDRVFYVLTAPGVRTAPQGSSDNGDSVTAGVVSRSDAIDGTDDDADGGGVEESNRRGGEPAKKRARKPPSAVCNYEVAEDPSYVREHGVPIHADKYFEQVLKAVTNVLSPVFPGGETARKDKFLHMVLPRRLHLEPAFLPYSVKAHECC
# Protocol: Human cytomegalovirus and varicella zoster virus DNA polymerases were expressed via baculovirus vector in SF21 cells and purified. Heterodimeric nucleic acid substrate used in the herpesvirus polymerase reactions was generated by annealing a 59-mer template to a 17-mer digoxigenin-labeled primer. Polymerase (HCMV final concentration of 0.2 nM; VZV final concentration of 0.4 nM) was combined with an inhibitor compound or DMSO in assay buffer (10 mM HEPES, pH 7.5, 25 mM KCl, 25 mM NaCl, 5 mM MgCl2, 5% glycerol, 0.67 mg/ml bovine serum albuminutes, and 1 mM tris(2-carboxyethyl)phosphine), and this mixture was pre-incubated for 30 minutes at room temperature in 384-well microtiter plates. The polymerization reaction was initiated by the addition of template/primer substrate (final concentration: 1.6 nM), and dNTPs (final concentration: 24 nM dCTP, 24 nMdGTP, 16 nM dATP, 16 nM dTTP, and 0.8 nM biotin-dUTP). After 60 minutes incubation at 37° C., reactions were terminated with quench buffer (25 mM HEPES pH 7.5, 100 mM NaCl, 0.25% Tween-20, 12 mM EDTA, and 1 mg/ml bovine serum albumin). Incorporation of biotinylated UTP was detected with 2.5-5 ug/ml anti-DIG AlphaLISA acceptor beads and 5-10 ug/ml streptavidin AlphaLISA donor beads (Perkin Elmer). Compound effects were normalized to the window defined by the controls (DMSO only and pre-quenched wells), and were fit using a 4-parameter algorithm to report an IC50.
# [2] = tested on: HCMV Strain AD169 in MRC-5 cells; test: Viral qPCR assay HCMV (V0/V1, V2/V3), EC50; format: cell-based
# Protocol: (§1) Viral qPCR Assays (V0/V1)
# (§2) MRC5 cells, Vero cells, and MeWo cells were obtained from ATCC and were maintained at 37° C./5% CO2/90% relative humidity in Minimal Essential Medium with 10% fetal bovine serum, […] L-glutamine, 100 units/ml penicillin and 100 ug/ml streptomycin. Assay plates were prepared by dispensing compounds dissolved in DMSO into wells of 384 well collagen-coated plates using an ECHO acoustic dispenser. Each compound was tested in a 10-point, serial 3-fold dilution. Controls included uninfected cells and infected cells treated only with DMSO. Assays were initiated by mixing selected cells, in suspension, with virus, and dispensing 50 μl/well infected cells to pre-plated compounds. Plates were incubated at 37° C./5% CO2/90% relative humidity for ˜72 hrs to permit genomic replication, and infected cells were lysed by the addition of an equal volume of lysis buffer (10 mM Tris-HCl, pH8, 50 mM KCl, 2 mM MgCl2, 0.45% NP-40, 0.45% Tween-20, and 100 μg/ml proteinase K). An aliquot of the lysate was transferred to a 384-well PCR plate and incubated at 56° C. for 1 hour and then at 95° C. for 10 min. Levels of a viral gene and of the cellular control, PPIA (Thermo Fisher Assay ID=Hs04194521_s1), were measured in separate 10 μL qPCR assays using TaqMan® Gene Expression Master Mix (Applied Biosystems), and an 7900HT Fast Real-Time PCR System with 384-Well Block Module. 7-point, serial 10-fold dilutions of a plasmid standard were run on each plate to generate a standard curve, and genome copies numbers were calculated by plotting experimental Ct onto linear regression of the standard curve. Viral genome copy numbers were normalized by cellular control copy number, and compound effects were normalized to the window defined by the controls. Calculated % effects were fit using a 4-parameter algorithm, and EC50 was reported.
# (§3) Viral qPCR Assays (V2/V3)
# as §2, with “gene” for “gene and of the cellular control, PPIA (Thermo Fisher Assay ID=Hs04194521_s1),”, “in” for “in separate”, “Compound effects on viral” for “Viral”, “number” for “numbers were normalized by cellular control copy number, and compound effects”, “reported. • HCMV: Strain AD169 Street was assayed in MRC-5 cells and was used at 0.05-0.1 pfu/cell. The assays were performed in either growth media or in the same media with 50% fetal bovine serum. Primer-probe set was Thermo Fisher Assay ID=AIFATFK. • VZV: Strain Street was maintained as an infected cell stock in MRC-5 cells. It was assayed in MeWo or MRC5 cells and was used at 0.04-0.1 pfu/cell. […]” for “reported.”
# [3] = tested on: VZV in MeWo or MRC5 cells; test: Viral qPCR assay VZV (V0/V1, V2/V3), EC50; format: cell-based; conditions: Human alphaherpesvirus 3, MRC5, MRC5 cells, 10%; read-out: VZV Cell (EC50) MRC5 10%
# Protocol: as §1, §2, §3
# as §2, with “gene” for “gene and of the cellular control, PPIA (Thermo Fisher Assay ID=Hs04194521_s1),”, “in” for “in separate”, “Compound effects on viral” for “Viral”, “number” for “numbers were normalized by cellular control copy number, and compound effects”, “reported. • HCMV: Strain AD169 Street was assayed in MRC-5 cells and was used at 0.05-0.1 pfu/cell. The assays were performed in either growth media or in the same media with 50% fetal bovine serum. Primer-probe set was Thermo Fisher Assay ID=AIFATFK. • VZV: Strain Street was maintained as an infected cell stock in MRC-5 cells. It was assayed in MeWo or MRC5 cells and was used at 0.04-0.1 pfu/cell. […]” for “reported.”
# [4] = tested on: HSV-1 Strain F in Vero or MRC5 cells; test: Viral qPCR assay HSV-1 (V0/V1, V2/V3), EC50; format: cell-based; conditions: Human alphaherpesvirus 1, MRC5, MRC5 cells, 10%; read-out: HSV1 Cell (EC50) MRC5 10%
# Protocol: as §1, §2, §3
# as §2, with “gene” for “gene and of the cellular control, PPIA (Thermo Fisher Assay ID=Hs04194521_s1),”, “in” for “in separate”, “Compound effects on viral” for “Viral”, “number” for “numbers were normalized by cellular control copy number, and compound effects”, “reported. • HCMV: Strain AD169 Street was assayed in MRC-5 cells and was used at 0.05-0.1 pfu/cell. The assays were performed in either growth media or in the same media with 50% fetal bovine serum. Primer-probe set was Thermo Fisher Assay ID=AIFATFK. • VZV: Strain Street was maintained as an infected cell stock in MRC-5 cells. It was assayed in MeWo or MRC5 cells and was used at 0.04-0.1 pfu/cell. […]” for “reported.”
# [5] = Human betaherpesvirus 5, AD169, MRC5, viral qPCR assay of Example 191, read-out: HCMV Cell (EC50)
pIC50 [1],Structure (SMILES),"pEC50 [2, 5]",pEC50 [3],pEC50 [4],"pEC50 ([2]; Human betaherpesvirus 5, AD169, MRC5, read-out: HCMV Cell (EC50))"
7.92,O=C(NCc1ccc(Br)cc1)c1cc(O[C@H]2CCN3C(=O)OC[C@@H]3C2)c(-c2cnn(C(F)F)c2)cn1 [Compound 83],6.26,6.83,6.56,–
6.39,Cc1cnc(C(=O)NCc2ccc(Cl)cc2)cc1OC1CCC(=O)N(C)CC1 (stereo not drawn) [Compound 99],5.40,–,–,–
6.09,CS(=O)(=O)c1cnc(C(=O)NCc2ccc(Cl)cc2)cc1O[C@H]1CCN2C(=O)OC[C@@H]2C1 [Compound 147],4.90,–,–,–
7.99,O=C(NCc1ccc(Cl)c(F)c1F)c1cc(O[C@H]2CCN3C(=O)OC[C@@H]3C2)c(-c2cnn(C(F)F)c2)cn1 [Compound 92],6.64,6.47,6.70,–
8.94,Cc1cc(-c2cnc(C(=O)NCc3ccc(Cl)cc3)cc2O[C@H]2CCN3C(=O)OC[C@@H]3C2)sn1 [Compound 23],6.99,7.22,7.59,–
6.05,CN1CCC(N2CCC(C(=O)OCN(Cc3ccc(Cl)cc3)C(=O)c3cc(O[C@H]4CCN5C(=O)OC[C@@H]5C4)c(-c4cnn(C(F)F)c4)cn3)CC2)CC1 [Compound 184],6.29,6.50,6.76,–
6.81,CC(=O)N1CCC(Oc2cc(C(=O)NCc3ccc(Cl)cc3)ncc2-c2cnsn2)CC1 [Compound 58],5.74,–,–,–
7.44,CC(C)(O)C1CN(c2cnc(C(=O)NCc3ccc(Cl)cc3)cc2O[C@H]2CCN3C(=O)OC[C@@H]3C2)C1 [Compound 121],6.59,–,–,–
6.82,CC(=O)N1CCC(Oc2cc(C(=O)NCc3ccc(Cl)cc3)ncc2-c2cn(C)nn2)CC1 [Compound 59],6.01,–,–,–
6.80,CC(C)(O)C12CC(C1)N(c1cnc(C(=O)NCc3ccc(Cl)cc3)cc1O[C@H]1CCN3C(=O)OC[C@@H]3C1)C2 [Compound 123],5.88,–,–,–
7.07,O=C(NCc1ccc(Cl)cc1)c1cc(O[C@H]2CCN3C(=O)OC[C@@H]3C2)c(N2CCOCC2)cn1 [Compound 116],6.10,5.44,5.62,–
6.97,COCCOC(=O)N(Cc1ccc(Cl)cc1)C(=O)c1cc(O[C@H]2CCN3C(=O)OC[C@@H]3C2)c(-c2cnn(C(F)F)c2)cn1 [Compound 179],5.86,–,–,–
6.73,O=C(NCc1ccc(I)cc1)c1cc(O[C@H]2CCN3C(=O)OC[C@@H]3C2)c(-c2cnn(C(F)F)c2)cn1 [Compound 89],5.82,–,–,–
8.72,O=C(NCc1ccc(Cl)cc1)c1cc(O[C@H]2CCN3C(=O)OC[C@@H]3C2)c(-c2cnc(CO)o2)cn1 [Compound 148b],6.99,6.66,6.94,–
7.60,CC(C)[C@H](N)C(=O)OCN(Cc1ccc(Cl)cc1)C(=O)c1cc(O[C@H]2CCN3C(=O)OC[C@@H]3C2)c(-c2cnn(C(F)F)c2)cn1 [Compound 185],6.90,6.58,6.82,–
6.89,C[C@@H]1CN(C)CCN1c1cc(C(=O)NCc2ccc(C#N)cc2)ncc1C#N [Compound 172],6.38,5.39,5.38,–
6.87,CC(=O)N1CCC(Oc2cc(C(=O)NCc3ccc(Cl)cc3)ncc2-c2cnn(C(F)F)c2)CC12CC2 (stereo not drawn) [Compound 160],5.85,–,–,–
6.77,N#Cc1cc(O[C@H]2CCN3C(=O)OC[C@@H]3C2)cc(C(=O)NCc2ccc(Cl)cc2)n1 [Compound 128],5.75,5.27,5.08,–
7.43,CC(=O)N1CCC(Oc2cc(C(=O)NCc3ccc(Cl)cc3)ncc2-c2cn(C)cn2)CC1 [Compound 50],6.34,6.61,6.74,–
7.19,O=C(NCc1ccc(Cl)cc1Cl)c1cc(O[C@H]2CCN3C(=O)OC[C@@H]3C2)c(-c2cnn(C(F)F)c2)cn1 [Compound 85],6.05,5.33,5.78,–
6.56,O=C(NCc1ccc(C(F)(F)F)cc1)c1cc(O[C@H]2CCN3C(=O)OC[C@@H]3C2)c(-c2cnn(C(F)F)c2)cn1 [Compound 104],5.22,–,–,–
6.74,C#Cc1ccc(CNC(=O)c2cc(O[C@H]3CCN4C(=O)OC[C@@H]4C3)c(-c3cnn(C(F)F)c3)cn2)cc1 [Compound 88],6.21,5.93,6.11,–
7.19,CC(C)(N)C1CCN(c2cnc(C(=O)NCc3ccc(Cl)cc3)cc2O[C@H]2CCN3C(=O)OC[C@@H]3C2)C1 (stereo partly drawn) [Compound 119],6.13,–,–,–
6.87,CC(=O)N1CCC(Oc2cc(C(=O)NCc3ccc(Cl)cc3)ncc2-c2cnsc2)CC1 [Compound 47],5.94,–,–,–
7.25,CC(=O)N1CCC(Oc2cc(C(=O)NCc3ccc(Cl)cc3)ncc2-c2cnoc2)CC1 [Compound 53],5.74,–,–,–
6.70,CN1CCC(C(=O)OCN(Cc2ccc(Cl)cc2)C(=O)c2cc(O[C@H]3CCN4C(=O)OC[C@@H]4C3)c(-c3cnn(C(F)F)c3)cn2)CC1 [Compound 183],6.83,–,–,–
7.18,CC(=O)N1CCC(Oc2cc(C(=O)NCc3ccc(Cl)cc3)ncc2-c2cn(C)c(CCO)n2)CC1 [Compound 55],6.11,–,–,–
6.70,CC(=O)N1CCC(Oc2cc(C(=O)NCc3ccc(Cl)cc3)ncc2-c2ccsn2)CC1 [Compound 60],5.83,–,–,–
7.41,O=C(NCc1ccc(Cl)cc1)c1cc(O[C@H]2CCN3C(=O)OC[C@@H]3C2)c(N2CC3(CC(O)C3)C2)cn1 [Compound 118],6.24,–,–,–

Structure (SMILES),pIC50 [1],"pEC50 [2, 5]",pEC50 [3],pEC50 [4],"pEC50 ([2]; Human betaherpesvirus 5, AD169, MRC5, read-out: HCMV Cell (EC50))"
C[C@@H]1CN(C)CCN1c1cc(C(=O)NCc2ccc(Cl)cc2)nc(-c2cnn(CCO)c2)c1 [Compound 177],6.22,–,–,–,5.85
